How the values were obtained:
Format in all cases: in vivo
[1] = system: velvetleaf (Abutilon theophrasti); assay: Test A postemergence
Procedure, shortened: (§1)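 Visual injury, scored on a 0–100 scale relative to untreated controls, was recorded about 10 d after application. Treatments were a preemergence soil spray over planted seeds or a postemergence spray on plants at the one- to two-leaf stage, 2 to 10 cm tall, all in loam soil–sand blend in the greenhouse.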

[2] = system: morningglory (Ipomoea spp.); assay: Test A postemergence
Procedure, shortened: as §1

[3] = system: crabgrass, large (Digitaria sanguinalis); assay: Test A postemergence
Procedure, shortened: as §1

[4] = system: pigweed (Amaranthus retroflexus); assay: Test A postemergence
Procedure, shortened: as §1

[5] = system: wheat (Triticum aestivum); assay: Test A postemergence
Procedure, shortened: as §1

[6] = system: barnyardgrass (Echinochloa crus-galli); assay: Test A postemergence
Procedure, shortened: as §1

corn (Zea mays) [7] = assay: Test A postemergence
Procedure, shortened: as §1

[8] = system: giant foxtail (Setaria faberii); assay: Test A postemergence
Procedure, shortened: as §1

[9] = system: velvetleaf (Abutilon theophrasti); assay: Test A preemergence; details: for Velvetleaf plant response rating (0 to 100 scale): Preemergence, 0 is no effect, 100 is complete control; for Plant response rating, Velvetleaf: preemergence
Procedure, shortened: as §1

[10] = system: morningglory (Ipomoea spp.); assay: Test A preemergence; details: for Morningglory plant response rating (0 to 100 scale): Preemergence, 0 is no effect, 100 is complete control; for Plant response rating, Morningglory: preemergence
Procedure, shortened: as §1

[11] = system: crabgrass, large (Digitaria sanguinalis); assay: Test A preemergence; details: for Crabgrass, Large plant response rating (0 to 100 scale): Preemergence, 0 is no effect, 100 is complete control; for Plant response rating, Crabgrass, Large: preemergence
Procedure, shortened: as §1

[12] = system: pigweed (Amaranthus retroflexus); assay: Test A preemergence; details: for Pigweed plant response rating (0 to 100 scale): Preemergence, 0 is no effect, 100 is complete control; for Plant response rating, Pigweed: preemergence
[13] = system: wheat (Triticum aestivum); assay: Test A preemergence; details: for Wheat plant response rating (0 to 100 scale): Preemergence, 0 is no effect, 100 is complete control; for Plant response rating, Wheat: preemergence
Procedure, shortened: as §1

[14] = system: barnyardgrass (Echinochloa crus-galli); assay: Test A preemergence; details: for Barnyardgrass plant response rating (0 to 100 scale): Preemergence, 0 is no effect, 100 is complete control; for Plant response rating, Barnyardgrass: preemergence
Procedure, shortened: as §1

corn (Zea mays) [15] = assay: Test A preemergence; details: for Corn plant response rating (0 to 100 scale): Preemergence, 0 is no effect, 100 is complete control; for Plant response rating, Corn: preemergence
Procedure, shortened: as §1

[16] = system: giant foxtail (Setaria faberii); assay: Test A preemergence; details: for Foxtail, Giant plant response rating (0 to 100 scale): Preemergence, 0 is no effect, 100 is complete control; for Plant response rating, Foxtail, Giant: preemergence
Procedure, shortened: as §1

rice (Oryra sativa) = assay: Test B flooded paddy test; details: Flood, 250 g ai/ha; 0 to 100 scale where 0 is no effect and 100 is complete control; 13 to 15 d
Procedure, shortened: (§2)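 Visual ratings (0 none to 100 complete control) are relative to untreated plants, taken 13–15 d after treatment in a greenhouse. Test material went straight into floodwater standing 3 cm above the soil, kept constant, on plants at the 2-leaf stage.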

[17] = system: ducksalad (Heteranthera limosa); assay: Test B flooded paddy test; details: Flood, 250 g ai/ha; 0 to 100 scale where 0 is no effect and 100 is complete control; 13 to 15 d
Procedure, shortened: as §2

[18] = system: sedge, umbrella (small-flower umbrella sedge, Cyperus difformis); assay: Test B flooded paddy test; details: Flood, 250 g ai/ha; for Sedge, Umbrella plant response rating: scale of 0 to 100 where 0 is no effect and 100 is complete control
Procedure, shortened: as §2

[19] = system: barnyardgrass (Echinochloa crus-galli); assay: Test B flooded paddy test; details: Flood, 250 g ai/ha; 0 to 100 scale where 0 is no effect and 100 is complete control; 13 to 15 d
Procedure, shortened: as §2

[20] = 1000 g ai/ha, postemergence, 0 to 100 scale, 0 no effect, 100 complete control
[21] = 125 g ai/ha, postemergence, visual injury after approximately 10 d, 0 to 100 scale (0 no effect, 100 complete control)
[22] = 500 g ai/ha, postemergence, visual injury, 0 to 100 scale (0 no effect, 100 complete control), approx. 10 d
[23] = 125 g ai/ha, visual rating after approx. 10 d, 0 to 100 scale where 0 is no effect and 100 is complete control
[24] = 500 g ai/ha, 0 to 100 scale, 0 = no effect, 100 = complete control
[25] = 500 g ai/ha, postemergence, 0 to 100 scale, 0 no effect, 100 complete control
[26] = Postemergence, 125 g ai/ha, visual injury, 0 to 100 scale (0 no effect, 100 complete control), approx. 10 d
[27] = 125 g ai/ha, 0 to 100 scale (0 no effect, 100 complete control)

Cc1cccc(NC(=O)C2C(=O)NCC2c2ccc(F)c(F)c2)c1N (racemic) [Compound 355]
Plant response rating, Velvetleaf [1, 20]: 0
Plant response rating, Morningglory [2, 20]: 0
Plant response rating, Crabgrass, Large [3, 20]: 0
Plant response rating, Pigweed [4, 20]: 0
Plant response rating, Wheat [5, 20]: 0
Plant response rating, Barnyardgrass [6, 20]: 0
Plant response rating, Corn (corn (Zea mays) [7]; [20]): 0
Plant response rating, Foxtail, Giant [8, 20]: 0
Velvetleaf plant response rating (0 to 100 scale) ([9]; 1000 g ai/ha): 0
Morningglory plant response rating (0 to 100 scale) ([10]; 1000 g ai/ha): 0
Crabgrass, Large plant response rating (0 to 100 scale) ([11]; 1000 g ai/ha): 0
Pigweed plant response rating (0 to 100 scale) ([12]; 1000 g ai/ha): 0
Wheat plant response rating (0 to 100 scale) ([13]; 1000 g ai/ha): 0
Barnyardgrass plant response rating (0 to 100 scale) ([14]; 1000 g ai/ha): 0
Corn plant response rating (0 to 100 scale) (corn (Zea mays) [15]; 1000 g ai/ha): 0
Foxtail, Giant plant response rating (0 to 100 scale) ([16]; 1000 g ai/ha): 0

Nc1c(NC(=O)C2C(=O)NCC2c2ccc(F)c(F)c2)cccc1[N+](=O)[O-] (racemic) [Compound 357]
Plant response rating, Velvetleaf [1, 20]: 0
Plant response rating, Morningglory [2, 20]: 0
Plant response rating, Crabgrass, Large [3, 20]: 0
Plant response rating, Pigweed [4, 20]: 0
Plant response rating, Wheat [5, 20]: 0
Plant response rating, Barnyardgrass [6, 20]: 0
Plant response rating, Corn (corn (Zea mays) [7]; [20]): 0
Plant response rating, Foxtail, Giant [8, 20]: 0
Velvetleaf plant response rating (0 to 100 scale) ([9]; 1000 g ai/ha): 0
Morningglory plant response rating (0 to 100 scale) ([10]; 1000 g ai/ha): 0
Crabgrass, Large plant response rating (0 to 100 scale) ([11]; 1000 g ai/ha): 0
Pigweed plant response rating (0 to 100 scale) ([12]; 1000 g ai/ha): 0
Wheat plant response rating (0 to 100 scale) ([13]; 1000 g ai/ha): 0
Barnyardgrass plant response rating (0 to 100 scale) ([14]; 1000 g ai/ha): 0
Corn plant response rating (0 to 100 scale) (corn (Zea mays) [15]; 1000 g ai/ha): 0
Foxtail, Giant plant response rating (0 to 100 scale) ([16]; 1000 g ai/ha): 0

O=C1NCC(c2cccc(O)c2)C1C(=O)Nc1ccccc1F (racemic) [Compound 714]
Plant response rating, Velvetleaf [1, 21]: 0
Plant response rating, Velvetleaf [1, 22]: 0
Plant response rating, Morningglory [2, 21]: 0
Plant response rating, Morningglory [2, 22]: 0
Plant response rating, Crabgrass, Large [3, 21]: 0
Plant response rating, Crabgrass, Large [3, 22]: 0
Plant response rating, Pigweed [4, 21]: 0
Plant response rating, Pigweed [4, 22]: 0
Plant response rating, Wheat [5, 21]: 0
Plant response rating, Wheat [5, 22]: 0
Plant response rating, Barnyardgrass [6, 21]: 0
Plant response rating, Barnyardgrass [6, 22]: 0
Plant response rating, Corn (corn (Zea mays) [7]; [21]): 0
Plant response rating, Corn (corn (Zea mays) [7]; [22]): 0
Plant response rating, Foxtail, Giant [8, 21]: 0
Plant response rating, Foxtail, Giant [8, 22]: 0
Plant response rating, Rice (rice (Oryra sativa)): 0
Plant response rating, Ducksalad [17]: 0
Sedge, Umbrella plant response rating [18]: 0
Plant response rating, Barnyardgrass [19]: 0
Plant response rating, Velvetleaf [9, 23]: 0
Plant response rating, Velvetleaf [9, 24]: 0
Plant response rating, Morningglory [10, 23]: 0
Plant response rating, Morningglory [10, 24]: 0
Plant response rating, Crabgrass, Large [11, 23]: 20
Plant response rating, Crabgrass, Large [11, 24]: 30
Plant response rating, Pigweed [12, 23]: 0
Plant response rating, Pigweed [12, 24]: 0
Plant response rating, Wheat [13, 23]: 0
Plant response rating, Wheat [13, 24]: 0
Plant response rating, Barnyardgrass [14, 23]: 0
Plant response rating, Barnyardgrass [14, 24]: 0
Plant response rating, Corn (corn (Zea mays) [15]; [23]): 0
Plant response rating, Corn (corn (Zea mays) [15]; [24]): 0
Plant response rating, Foxtail, Giant [16, 23]: 0
Plant response rating, Foxtail, Giant [16, 24]: 20

O=C1NCC(c2cccc(O)c2)C1C(=O)Nc1cccc(F)c1F (racemic) [Compound 715]
Plant response rating, Velvetleaf [1, 21]: 0
Plant response rating, Velvetleaf [1, 22]: 0
Plant response rating, Morningglory [2, 21]: 0
Plant response rating, Morningglory [2, 22]: 0
Plant response rating, Crabgrass, Large [3, 21]: 0
Plant response rating, Crabgrass, Large [3, 22]: 0
Plant response rating, Pigweed [4, 21]: 0
Plant response rating, Pigweed [4, 22]: 0
Plant response rating, Wheat [5, 21]: 0
Plant response rating, Wheat [5, 22]: 0
Plant response rating, Barnyardgrass [6, 21]: 0
Plant response rating, Barnyardgrass [6, 22]: 0
Plant response rating, Corn (corn (Zea mays) [7]; [21]): 0
Plant response rating, Corn (corn (Zea mays) [7]; [22]): 0
Plant response rating, Foxtail, Giant [8, 21]: 0
Plant response rating, Foxtail, Giant [8, 22]: 0
Plant response rating, Rice (rice (Oryra sativa)): 0
Plant response rating, Ducksalad [17]: 0
Sedge, Umbrella plant response rating [18]: 0
Plant response rating, Barnyardgrass [19]: 0
Plant response rating, Velvetleaf [9, 23]: 0
Plant response rating, Velvetleaf [9, 24]: 0
Plant response rating, Morningglory [10, 23]: 0
Plant response rating, Morningglory [10, 24]: 0
Plant response rating, Crabgrass, Large [11, 23]: 0
Plant response rating, Crabgrass, Large [11, 24]: 0
Plant response rating, Pigweed [12, 23]: 0
Plant response rating, Pigweed [12, 24]: 0
Plant response rating, Wheat [13, 23]: 0
Plant response rating, Wheat [13, 24]: 0
Plant response rating, Barnyardgrass [14, 23]: 0
Plant response rating, Barnyardgrass [14, 24]: 0
Plant response rating, Corn (corn (Zea mays) [15]; [23]): 0
Plant response rating, Corn (corn (Zea mays) [15]; [24]): 0
Plant response rating, Foxtail, Giant [16, 23]: 0
Plant response rating, Foxtail, Giant [16, 24]: 0

CN(C)c1cccc(C2CNC(=O)C2C(=O)Nc2ccccc2F)c1 (centres unmarked) [Compound 360]
Plant response rating, Velvetleaf [1, 25]: 0
Plant response rating, Velvetleaf [1, 26]: 0
Plant response rating, Morningglory [2, 25]: 0
Plant response rating, Morningglory [2, 26]: 0
Plant response rating, Crabgrass, Large [3, 25]: 0
Plant response rating, Crabgrass, Large [3, 26]: 0
Plant response rating, Pigweed [4, 25]: 0
Plant response rating, Pigweed [4, 26]: 0
Plant response rating, Wheat [5, 25]: 0
Plant response rating, Wheat [5, 26]: 0
Plant response rating, Barnyardgrass [6, 25]: 0
Plant response rating, Barnyardgrass [6, 26]: 0
Plant response rating, Corn (corn (Zea mays) [7]; [25]): 0
Plant response rating, Corn (corn (Zea mays) [7]; [26]): 0
Plant response rating, Foxtail, Giant [8, 25]: 0
Plant response rating, Foxtail, Giant [8, 26]: 0
Plant response rating, Rice (rice (Oryra sativa)): 0
Plant response rating, Ducksalad [17]: 0
Plant response rating, Sedge, Umbrella ([18]; 0 to 100 scale where 0 is no effect and 100 is complete control, 13 to 15 d): 0
Plant response rating, Barnyardgrass [19]: 0
Plant response rating, Velvetleaf [9, 27]: 0
Velvetleaf plant response rating (0 to 100 scale) ([9]; 500 g ai/ha): 0
Plant response rating, Morningglory [10, 27]: 0
Morningglory plant response rating (0 to 100 scale) ([10]; 500 g ai/ha): 0
Plant response rating, Crabgrass, Large [11, 27]: 0
Crabgrass, Large plant response rating (0 to 100 scale) ([11]; 500 g ai/ha): 0
Plant response rating, Pigweed [12, 27]: 0
Pigweed plant response rating (0 to 100 scale) ([12]; 500 g ai/ha): 0
Plant response rating, Wheat [13, 27]: 0
Wheat plant response rating (0 to 100 scale) ([13]; 500 g ai/ha): 0
Plant response rating, Barnyardgrass [14, 27]: 0
Barnyardgrass plant response rating (0 to 100 scale) ([14]; 500 g ai/ha): 0
Plant response rating, Corn (corn (Zea mays) [15]; [27]): 0
Corn plant response rating (0 to 100 scale) (corn (Zea mays) [15]; 500 g ai/ha): 0
Plant response rating, Foxtail, Giant [16, 27]: 0
Foxtail, Giant plant response rating (0 to 100 scale) ([16]; 500 g ai/ha): 0

— patent publication US12077503B2, “Substituted cyclic amides and their use as herbicides” (FMC CORPORATION, priority 2015, dated 2024)
